Laboratory results reported in patent US5254589A, “Sulfonyl urea and carbamate ACAT inhibitors” (priority 1991, dated 1993).
pIC50: −log10 of the molar value.

Legend:
[1] = In vivo screen APCC: blood cholesterol in rats fed a high fat, high cholesterol diet with 0.5% cholic acid; parameters: species or system male Sprague-Dawley rats; conditions: 16 h, rat, 30 mg/kg unless otherwise noted, dosed at 4 PM, high cholesterol diet overnight, blood sampled at 8 AM, read-out: APCC (% .increment.TC)
From the text: In one in vivo screen designated APCC, male Sprague-Dawley rats (200 to 225 g) were randomly divided into treatment groups and dosed at 4 PM with either vehicle (CMC/Tween) or suspensions of compounds in vehicle. The normal chow diet was then replaced with a high fat, high cholesterol diet with 0.5% cholic acid. The rats consumed this diet ad libitum during the night and were sacrificed at 8 AM to obtain blood samples for cholesterol analysis using standard procedures. Statistical differences between mean cholesterol values for the same vehicle were determined using analysis of variance followed by Fisher's least significant test. The compounds were dosed at 30 mg/kg unless otherwise noted.

[2] = molecular target: T1, acyl-CoA:cholesterol acyltransferase (ACAT) (Oryctolagus cuniculus, UniProt G1SFD9); experiment: In vitro ACAT inhibition (IAI): formation of radiolabeled cholesterol oleate from radiolabeled oleic acid in rabbit intestinal microsomes; type: biochemical; conditions: inhibition of acylation of cholesterol by oleic acid
T1 construct: in a tissue preparation containing rabbit intestinal microsomes; from tissue; host or cells: rabbit intestine, microsomes
T1 sequence (G1SFD9 1-524): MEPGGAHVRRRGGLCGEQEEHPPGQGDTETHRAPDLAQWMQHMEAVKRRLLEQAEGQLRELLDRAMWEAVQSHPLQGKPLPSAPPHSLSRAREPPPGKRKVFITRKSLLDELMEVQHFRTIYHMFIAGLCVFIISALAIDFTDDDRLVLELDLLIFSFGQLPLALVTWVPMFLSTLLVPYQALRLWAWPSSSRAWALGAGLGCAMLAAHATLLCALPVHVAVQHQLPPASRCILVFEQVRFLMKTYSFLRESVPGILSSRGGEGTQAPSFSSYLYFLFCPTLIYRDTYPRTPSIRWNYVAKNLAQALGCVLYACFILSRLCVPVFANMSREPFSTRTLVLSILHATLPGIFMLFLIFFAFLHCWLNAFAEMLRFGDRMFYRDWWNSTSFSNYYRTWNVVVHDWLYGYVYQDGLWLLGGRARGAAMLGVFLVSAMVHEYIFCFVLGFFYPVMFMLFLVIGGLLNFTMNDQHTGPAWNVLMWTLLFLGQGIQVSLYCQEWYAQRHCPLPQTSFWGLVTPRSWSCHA
From the text: As shown by the data presented below in Table 1, the compounds of the present invention are potent inhibitors of the enzyme acyl-CoA:cholesterolacyltransferase (ACAT), and are thus effective in inhibiting the esterification and transport of cholesterol across the intestinal cell wall. The compounds of the present invention are thus useful in pharmaceutical formulations for the treatment of hypercholesterolemia or atherosclerosis. The ability of representative compounds of the present invention to inhibit ACAT was measured using an in vitro test more fully described in F. J. Field and R. G. Salone, Biochemica et Biophysica 712:557-570 (1982). The test assesses the ability of a test compound to inhibit the acylation of cholesterol by oleic acid by measuring the amount of radiolabeled cholesterol oleate formed from radiolabeled oleic acid in a tissue preparation containing rabbit intestinal microsomes.

pIC50 [2]	SMILES	change in vivo at 30 mg/kg [1]
5.99	CCCCCCCCCCCCCC(C)S(=O)(=O)NC(=O)Nc1c(C(C)C)cccc1C(C)C (stereo not shown) [Example 1, N-[2,6-Bis(1-methylethyl)phenyl]-N'-(2-pentadecylsulfonyl)urea]	-76%
6.08	CCCCCCCCCCCCCCS(=O)(=O)NC(=O)Nc1c(C(C)C)cccc1C(C)C [Example 2, N-[2,6-Bis(1-methylethyl)phenyl]-N'-(tetradecylsulfonyl)urea]	-56%
< 5.30	CCCCCCCCCCCCCCS(=O)(=O)N(C)C(=O)Nc1c(C(C)C)cccc1C(C)C [Example 3, N-[2,6-Bis(1-methylethyl)phenyl]-N'-methyl-N'-(tetradecylsulfonyl)urea]	-34%
6.29	CCCCCCCCCCCCCCS(=O)(=O)N(Cc1ccccc1)C(=O)Nc1c(C(C)C)cccc1C(C)C [Example 4]	
< 5.30	CCCCCCCCS(=O)(=O)NC(=O)Nc1c(C(C)C)cccc1C(C)C [Example 5, N-[2,6-Bis(1-methylethyl)phenyl]-N'-(octylsulfonyl)urea]	
5.92	CCCCCCCCCCCCS(=O)(=O)NC(=O)Nc1c(C(C)C)cccc1C(C)C [Example 6, N-[2,6-Bis(1-methylethyl)phenyl]-N'-(dodecylsulfonyl)urea]	-63%
5.90	CCCCCCCCCCCCCCCCS(=O)(=O)NC(=O)Nc1c(C(C)C)cccc1C(C)C [Example 7, N-[2,6-Bis(1-methylethyl)phenyl]-N'-(hexadecylsulfonyl)urea]	-64%
4.89	CCCCCCCCCCS(=O)(=O)NC(=O)Nc1c(C(C)C)cccc1C(C)C [Example 8, N-[2,6-Bis(1-methylethyl)phenyl]-N'-(decylsulfonyl)urea]	-31%
5.30	CCCCCCCCCCCCCCS(=O)(=O)NC(=O)Nc1ccc(F)cc1F [Example 10, N-(2,4-Difluorophenyl)-N'-(tetradecylsulfonyl)urea]	-14%
7.07	CCCCCCCCCCCCS(=O)(=O)N(C)C(=O)Nc1c(C(C)C)cccc1C(C)C [Example 11]	-49%
5.70	CCCCCCCCCCCCCC(c1ccccc1)S(=O)(=O)NC(=O)Nc1c(C(C)C)cccc1C(C)C (stereo not shown) [Example 14, N-[2,6-Bis(1-methylethyl)phenyl]-N'-(1-phenyl-1-tetradecylsulfonyl)urea]	-72%
5.04	CCCCCCCCC(c1ccccc1)S(=O)(=O)NC(=O)Nc1c(C(C)C)cccc1C(C)C (stereo not shown) [Example 15, N-[2,6-Bis(1-methylethyl)phenyl]-N'-(1-phenyl-1-nonylsulfonyl)urea]	-75%
